Literature values in patent US20250275948A1, “(N-[4-(2,3-DIHYDRO-1H-INDEN-5-YL)-1,3-THIAZOL-2-YL]-2-[4-METHYL-4-(NAPHTHALEN-2-YL)-2,5-DIOXOIMIDAZOLIDIN-1-YL]ACETAMIDE AS STABILIZER OF CLOCK:BMAL1 INTERACTION FOR THE TREATMENT OF CIRCADIAN RHYTHM DISEASES AND DISORDERS” (KOC UNIVERSITESI, priority 2022, published 2025).

Columns and labels:
Conditions in all cases: cited from earlier work
REV-ERB = tested on: REV-ERB
gluconeogenesis = tested on: gluconeogenesis
CRYs = tested on: CRYs

Row | Structure (SMILES) | effect on REV-ERB repressor function (REV-ERB) | effect on gluconeogenesis (gluconeogenesis) | effect on stability of CRYs (CRYs)
1 | CC(C)(C)OC(=O)CN(Cc1ccc(Cl)cc1)Cc1ccc([N+](=O)[O-])s1 [GSK4112] | enhance REV-ERB's repressor function toward Bmal1 transcription | – | –
2 | CS(=O)(=O)N(Cc1ccco1)CC(O)Cn1c2ccccc2c2ccccc21 (stereo not drawn) [KL001] | – | suppresses the gluconeogenesis | increases stability of the CRYs
